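Where inhibition never reached the appropriate level, the endpoint shown equals the highest concentration tested. Otherwise, values were interpolated linearly from a five-concentration, 48-hour dose response in 96-well plates. GI50: concentration for 50% inhibition of growth. At the TGI there is no net growth.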
How the values were obtained:
Experiment in all cases: NCI tumour cell line growth inhibition, 48 h
[1] = test system: BT-549 breast
[2] = test system: EKVX NSCLC
[3] = test system: SK-MEL-2 melanoma
[4] = test system: OVCAR-3 ovarian
[5] = test system: SW-620 colon
[6] = test system: SN12C renal
[7] = test system: DU-145 prostate
[8] = test system: SNB-19 CNS
[9] = test system: SR leukemia
[10] = test system: OVCAR-8 ovarian
[11] = test system: ACHN renal
[12] = test system: T-47D breast
[13] = test system: NCI-H522 lung
[14] = test system: U251 CNS
[15] = test system: IGROV1 ovarian
[16] = test system: NCI-H460 lung
[17] = test system: MOLT-4 leukemia
[18] = test system: UACC-257 melanoma
[19] = test system: TK-10 renal
[20] = test system: CCRF-CEM leukemia
[21] = test system: OVCAR-4 ovarian
[22] = test system: MCF7 breast
[23] = test system: HL-60(TB) leukemia
[24] = test system: NCI-H226 lung
[25] = test system: HT29 colon
[26] = test system: A549 NSCLC
[27] = test system: LOX IMVI melanoma
[28] = test system: 786-0 renal
[29] = test system: K-562 leukemia
[30] = test system: HCC-2998 colon
[31] = test system: NCI/ADR-RES ovarian
[32] = test system: UACC-62 melanoma
[33] = test system: OVCAR-5 ovarian
[34] = test system: HOP-92 NSCLC
[35] = test system: SK-MEL-5 melanoma
[36] = test system: UO-31 renal
[37] = test system: HCT-15 colon
[38] = test system: SNB-75 CNS
[39] = test system: SF-268 CNS
[40] = test system: MDA-MB-231 breast
[41] = test system: NCI-H23 lung
[42] = test system: SK-MEL-28 melanoma
[43] = test system: COLO 205 colon
[44] = test system: RPMI-8226 leukemia
[45] = test system: SF-295 CNS
[46] = test system: CAKI-1 renal
[47] = test system: PC-3 prostate
[48] = test system: RXF 393 renal
[49] = test system: MALME-3M melanoma
[50] = test system: MDA-MB-435
[51] = test system: SK-OV-3 ovarian
[52] = test system: M14 melanoma
[53] = test system: HOP-62 NSCLC
[54] = test system: A498 renal
[55] = test system: KM12 colon
[56] = test system: SF-539 CNS
[57] = test system: HCT-116 colon
[58] = test system: HS 578T breast

## O=C1Nc2cc(Cl)ccc2/C1=C\c1c(-c2ccc(F)cc2)nc2ccccn12
[1]
  GI50: 1210 nM
  TGI: 5680 nM
[2]
  GI50: 2770 nM
  TGI: > 100000 nM
[3]
  GI50: 458 nM
  TGI: 2190 nM
[4]
  GI50: 424 nM
  TGI: 2970 nM
[5]
  GI50: 445 nM
  TGI: 2600 nM
[6]
  GI50: 1030 nM
[7]
  GI50: 1490 nM
[8]
  GI50: 1150 nM
  TGI: 22100 nM
[9]
  GI50: 112 nM
  TGI: > 100000 nM
[10]
  GI50: 1980 nM
  TGI: 8210 nM
[11]
  GI50: 1250 nM
  TGI: 3220 nM
[12]
  GI50: 1120 nM
  TGI: 2960 nM
[13]
  GI50: 239 nM
  TGI: 919 nM
[14]
  GI50: 541 nM
  TGI: 2090 nM
[15]
  GI50: 1020 nM
  TGI: 5820 nM
[16]
  GI50: 408 nM
  TGI: 1490 nM
[17]
  GI50: 563 nM
  TGI: > 100000 nM
[18]
  GI50: 5020 nM
  TGI: 48500 nM
[19]
  GI50: 1380 nM
  TGI: 2990 nM
[20]
  GI50: 832 nM
  TGI: > 100000 nM
[21]
  GI50: 1450 nM
  TGI: 3000 nM
[22]
  GI50: 387 nM
  TGI: 2420 nM
[23]
  GI50: 346 nM
  TGI: 1460 nM
[24]
  GI50: 1320 nM
  TGI: 3650 nM
[25]
  GI50: 389 nM
  TGI: 1340 nM
[26]
  GI50: 690 nM
  TGI: 2150 nM
[27]
  GI50: 723 nM
  TGI: 2650 nM
[28]
  GI50: 998 nM
  TGI: 2590 nM
[29]
  GI50: 320 nM
  TGI: > 100000 nM
[30]
  GI50: 1100 nM
  TGI: 2880 nM
[31]
  GI50: 277 nM
  TGI: 1060 nM
[32]
  GI50: 546 nM
  TGI: 12400 nM
[33]
  GI50: 1700 nM
  TGI: 5810 nM
[34]
  GI50: 4420 nM
  TGI: 26500 nM
[35]
  GI50: 559 nM
  TGI: 2040 nM
[36]
  GI50: 686 nM
  TGI: 2700 nM
[37]
  GI50: 686 nM
  TGI: 7260 nM
[38]
  GI50: 304 nM
  TGI: 1340 nM
[39]
  GI50: 1290 nM
  TGI: > 24600 nM
[40]
  GI50: 1480 nM
  TGI: 6380 nM
[41]
  GI50: 765 nM
  TGI: 4450 nM
[42]
  GI50: 995 nM
  TGI: 4590 nM
[43]
  GI50: 552 nM
  TGI: 1940 nM
[44]
  GI50: 1360 nM
[45]
  GI50: 376 nM
  TGI: 1730 nM
[46]
  GI50: 498 nM
  TGI: 2130 nM
[47]
  GI50: 1140 nM
  TGI: 5390 nM
[48]
  GI50: 631 nM
  TGI: 2190 nM
[49]
  GI50: 690 nM
  TGI: 2410 nM
[50]
  GI50: 167 nM
  TGI: 519 nM
[51]
  GI50: 1050 nM
  TGI: 2420 nM
[52]
  GI50: 510 nM
  TGI: 2570 nM
[53]
  GI50: 916 nM
  TGI: 2290 nM
[54]
  GI50: 1310 nM
  TGI: 6030 nM
[55]
  GI50: 573 nM
  TGI: > 100000 nM
[56]
  GI50: 915 nM
  TGI: 2950 nM
[57]
  GI50: 444 nM
  TGI: 1630 nM
[58]
  GI50: 1660 nM
  TGI: > 20400 nM

## C[C@@H]1C[N+]2([O-])[C@H]3C4=CCC[C@@H]4CC[C@H]3[C@@]3(C)OC(=O)CC[C@]34CC[C@H]1[C@@H]42 (some centres not stated)
[1]
  GI50: > 60000 nM
  TGI: > 60000 nM
[2]
  GI50: > 60000 nM
  TGI: > 60000 nM
[3]
  GI50: > 60000 nM
  TGI: > 60000 nM
[4]
  GI50: > 60000 nM
  TGI: > 60000 nM
[5]
  GI50: > 60000 nM
  TGI: > 60000 nM
[6]
  GI50: > 60000 nM
  TGI: > 60000 nM
[7]
  GI50: > 60000 nM
  TGI: > 60000 nM
[8]
  GI50: > 60000 nM
  TGI: > 60000 nM
[9]
  GI50: > 60000 nM
  TGI: > 60000 nM
[10]
  GI50: > 60000 nM
  TGI: > 60000 nM
[11]
  GI50: > 60000 nM
  TGI: > 60000 nM
[12]
  GI50: > 60000 nM
  TGI: > 60000 nM
[13]
  GI50: > 60000 nM
  TGI: > 60000 nM
[14]
  GI50: > 60000 nM
  TGI: > 60000 nM
[15]
  GI50: > 60000 nM
  TGI: > 60000 nM
[16]
  GI50: > 60000 nM
  TGI: > 60000 nM
[17]
  GI50: > 60000 nM
  TGI: > 60000 nM
[19]
  GI50: > 60000 nM
  TGI: > 60000 nM
[20]
  GI50: > 60000 nM
  TGI: > 60000 nM
[21]
  GI50: > 60000 nM
  TGI: > 60000 nM
[22]
  GI50: > 60000 nM
  TGI: > 60000 nM
[23]
  GI50: > 60000 nM
  TGI: > 60000 nM
[24]
  GI50: > 60000 nM
  TGI: > 60000 nM
[25]
  GI50: > 60000 nM
  TGI: > 60000 nM
[26]
  GI50: > 60000 nM
  TGI: > 60000 nM
[27]
  GI50: > 60000 nM
  TGI: > 60000 nM
[28]
  GI50: > 60000 nM
  TGI: > 60000 nM
[29]
  GI50: > 60000 nM
  TGI: > 60000 nM
[30]
  GI50: > 60000 nM
  TGI: > 60000 nM
[31]
  GI50: > 60000 nM
  TGI: > 60000 nM
[32]
  GI50: > 60000 nM
  TGI: > 60000 nM
[33]
  GI50: > 60000 nM
  TGI: > 60000 nM
[34]
  GI50: > 60000 nM
  TGI: > 60000 nM
[35]
  GI50: > 60000 nM
  TGI: > 60000 nM
[36]
  GI50: > 60000 nM
  TGI: > 60000 nM
[37]
  GI50: > 60000 nM
  TGI: > 60000 nM
[38]
  GI50: > 60000 nM
  TGI: > 60000 nM
[39]
  GI50: > 60000 nM
  TGI: > 60000 nM
[40]
  GI50: > 60000 nM
  TGI: > 60000 nM
[41]
  GI50: > 60000 nM
  TGI: > 60000 nM
[42]
  GI50: > 60000 nM
  TGI: > 60000 nM
[43]
  GI50: > 60000 nM
  TGI: > 60000 nM
[44]
  GI50: > 60000 nM
  TGI: > 60000 nM
[45]
  GI50: > 60000 nM
  TGI: > 60000 nM
[46]
  GI50: > 60000 nM
  TGI: > 60000 nM
[47]
  GI50: > 60000 nM
  TGI: > 60000 nM
[48]
  GI50: > 60000 nM
  TGI: > 60000 nM
[49]
  GI50: > 60000 nM
  TGI: > 60000 nM
[50]
  GI50: > 60000 nM
  TGI: > 60000 nM
[51]
  GI50: > 60000 nM
  TGI: > 60000 nM
[52]
  GI50: > 60000 nM
  TGI: > 60000 nM
[53]
  GI50: > 60000 nM
  TGI: > 60000 nM
[54]
  GI50: > 60000 nM
  TGI: > 60000 nM
[55]
  GI50: > 60000 nM
  TGI: > 60000 nM
[56]
  GI50: > 60000 nM
  TGI: > 60000 nM
[57]
  GI50: > 60000 nM
  TGI: > 60000 nM
[58]
  GI50: > 60000 nM
  TGI: > 60000 nM

Source: PubChem BioAssay (NCI)
